Test results taken from publication PMC3800496 (ACS Chemical Biology, 2013).

Key:
Test in all cases: anti-proliferation assay
Assay type in all cases: cell-based
HCT-116(OWT) = conditions: Homo sapiens, HCT-116, 48 h, read-out: anti-proliferation GI50
T47D(OWT) = conditions: Homo sapiens, 48 h, read-out: anti-proliferation GI50
A549(WT) = conditions: Homo sapiens, A549, 48 h, read-out: anti-proliferation GI50
H1975(WT) = conditions: Homo sapiens, NCI-H1975, 48 h, read-out: anti-proliferation GI50
SaoS2(WT) = conditions: Homo sapiens, SAOS-2, 48 h, read-out: anti-proliferation GI50
SkBr3(WT) = conditions: Homo sapiens, SK-BR-3, 48 h, read-out: anti-proliferation GI50
SW480(OWT) = conditions: Homo sapiens, SW480, 48 h, read-out: anti-proliferation GI50
SNU-1040(OMT) = conditions: Homo sapiens, 48 h, read-out: anti-proliferation GI50
EJ(WT) = conditions: 48 h, read-out: anti-proliferation GI50
SNU-449(OMT) = conditions: Homo sapiens, SNU-449, 48 h, read-out: anti-proliferation GI50

- GI50 (HCT-116(OWT)): 8.7 µM
- GI50 (T47D(OWT)): > 10 µM
- GI50 (A549(WT)): > 10 µM
- GI50 (H1975(WT)): > 10 µM
- GI50 (SW480(OWT)): > 10 µM
- GI50 (SNU-1040(OMT)): > 10 µM
- GI50 (SNU-449(OMT)): > 10 µM
Compound: CCN1CCN(Cc2ccc(C(=O)Nc3ccc(C)c(Oc4ccc5c(c4)CC(=O)N5)c3)cc2C(F)(F)F)CC1 [DDR1-IN-1]
- GI50 (SaoS2(WT)): 8.14 µM
- GI50 (SkBr3(WT)): > 10 µM
- GI50 (EJ(WT)): > 10 µM
